Series [1] can be described thus: Cytotoxicity assay (neutral red), WM9R cells. The note with it: human, WM9R melanoma cells (vemurafenib-resistant); read-out: sPAH-IC50 (cytotoxicity of sPAH alone). Type of series: cell-based. The method, then:
(§1) Human melanoma cell lines A375 and MeWo were purchased from ATCC, and cultured in DMEM medium supplemented with 10% fetal bovine serum and penicillin/streptomycin (Invitrogen) at 37 °C in a 5% CO2/95% water-saturated air atmosphere. Melanoma cell lines SKMEL 28, SKMEL V3, WM9S, and WM9R were provided by Robert Ballotti (C3M, Nice, France). MeWo-dxrR cells were obtained by adding increasing concentrations of doxorubicin, up to 0.2 µM, in the culture medium over 6 months. These cells were grown in medium supplemented with 0.2 µM dxr. WM9R cells were obtained by adding increasing concentrations of vemurafenib, up to 5 µM, in the culture medium over 6 months. These cells were grown in medium supplemented with 5 µM vemurafenib. HEK cells were grown in 75 mm tissue culture dishes (Falcon, Franklin Lakes, NJ, USA) in Dulbecco’s modified Eagle’s medium (Gibco, Life Technologies, Saint Aubin, France) supplemented with 10% fetal calf serum (Hyclone, Thermo Fisher Scientific GMBH, Ulm, Germany) and 1% penicillin/streptomycin (Gibco, Life Technologies, Saint Aubin, France) in a humidified incubator at 37 °C (5% CO2).
(§2) Cells were seeded in 96-well plates in triplicate and grown in medium to achieve 70 to 80% confluence. […] Measurements were made in microplate readers (Multiskan Go Microplate Spectrophotometer from Thermo Scientific).

The next series concerns WM9R cells. Kind of series: Cytotoxicity assay (neutral red), WM9R cells. Type of series: cell-based. Particulars: WM9R; sPAH 20 µM; 24 h. The method, then: as §1, §2
The subject of a further series is chick embryos. Kind of series: sPAH toxicity on chick embryos. Type of series: in vivo. The note with it: 10 days. The procedure:
These experiments were performed by the company INOVOTION (La Tronche, France). […] At this time (E9), an access point to the chorioallantoic membrane (CAM) was made by drilling a small hole through the eggshell into the air sac and a 1 cm^2 window was cut in the eggshell above the CAM. Twenty-one eggs were used for each condition. […] MeWo cells cultivated in DMEM medium with 10% FBS (and 1% penicillin/streptomycin) were detached with trypsin, washed with complete medium, labeled, and suspended in PBS. An inoculum of 3 × 10^6 cells was added onto the CAM of each egg (E9). Eggs were then randomized in 4 groups. The chick embryos were then treated every two days (E11, E13, E15, E17) for 10 days in total, by adding 100 µL of vehicle (1% DMSO in PBS) as a negative control or 100 µL of sPAH at 3 different doses onto the CAM. The number of dead embryos evaluates the toxicity after 10 days of the treatment, as does the observation of 22 abnormality checkpoints in surviving embryos.

On to `COc1cc(C)c(CC/C(C)=C/Cc2cc(O)ccc2O)c(C)c1C` [sPAH, Panicein A hydroquinone], for which the IC50 in series [1] came out at 41 ± 6.2 µM. In addition, in the series with WM9R cells, the “change of the IC50 of vemurafenib in the presence of sPAH” value is given as “decrease by a factor of ten”. Moreover, the “abnormalities in surviving embryos (22 checkpoints)” value with chick embryos (100 µM to 1 mM) was “no abnormalities were observed”. The acute toxicity result in the series on chick embryos (up to the highest dose of 1 mM) is given as “No acute toxicity was observed”.
